We go through 5 compounds from publication PMC10175918 (Communications Biology, 2023).

The structures appear in SMILES notation. Where two headings read alike, the source gives them in different places.

Common to all, as to test: TGFα-shedding assay-based GPCR screening with chimeric Gα subunit proteins
Holding throughout (format): cell-based

Assay [1] deals with T1, 348 GPCRs (Homo sapiens, UniProt O15552).
T1 construct: expressed in transfected cells; host or cells: HEK293A
T1 sequence (O15552 1-330): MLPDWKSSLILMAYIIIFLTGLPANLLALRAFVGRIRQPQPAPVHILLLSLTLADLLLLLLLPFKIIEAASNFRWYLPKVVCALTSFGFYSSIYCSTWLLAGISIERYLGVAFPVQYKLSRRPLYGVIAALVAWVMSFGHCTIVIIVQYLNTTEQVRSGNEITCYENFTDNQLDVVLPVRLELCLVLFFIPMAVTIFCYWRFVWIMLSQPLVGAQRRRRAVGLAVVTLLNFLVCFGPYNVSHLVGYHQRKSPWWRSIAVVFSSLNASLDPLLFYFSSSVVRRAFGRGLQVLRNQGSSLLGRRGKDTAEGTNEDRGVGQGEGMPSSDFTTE
As to conditions: 10µM, Favipiravir 100μM.

The target of assay [2] is 348 GPCRs (Homo sapiens, UniProt P21728). The following applies: 10µM, Favipiravir 100μM.
Sequence of 348 GPCRs (Homo sapiens, UniProt P21728) (P21728 whole entry): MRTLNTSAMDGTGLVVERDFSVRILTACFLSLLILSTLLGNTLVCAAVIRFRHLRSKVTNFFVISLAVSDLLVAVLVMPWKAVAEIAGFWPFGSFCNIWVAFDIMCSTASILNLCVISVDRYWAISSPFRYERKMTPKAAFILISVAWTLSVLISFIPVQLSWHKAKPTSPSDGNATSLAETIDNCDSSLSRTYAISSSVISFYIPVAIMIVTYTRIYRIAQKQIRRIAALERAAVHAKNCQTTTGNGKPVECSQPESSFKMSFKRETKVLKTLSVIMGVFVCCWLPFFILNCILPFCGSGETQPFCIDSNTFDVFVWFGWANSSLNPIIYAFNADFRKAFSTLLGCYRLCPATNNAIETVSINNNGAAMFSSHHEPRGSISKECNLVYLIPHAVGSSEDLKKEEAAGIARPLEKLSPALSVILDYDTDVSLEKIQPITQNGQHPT
Assay [3] has as its target 348 GPCRs (Homo sapiens, UniProt P32745). As to conditions: 10µM, Favipiravir 100μM.
In assay [4] the target is T2, 348 GPCRs (Homo sapiens, UniProt P47900).
T2 construct: expressed in transfected cells; host or cells: HEK293A
T2 sequence (P47900 whole entry): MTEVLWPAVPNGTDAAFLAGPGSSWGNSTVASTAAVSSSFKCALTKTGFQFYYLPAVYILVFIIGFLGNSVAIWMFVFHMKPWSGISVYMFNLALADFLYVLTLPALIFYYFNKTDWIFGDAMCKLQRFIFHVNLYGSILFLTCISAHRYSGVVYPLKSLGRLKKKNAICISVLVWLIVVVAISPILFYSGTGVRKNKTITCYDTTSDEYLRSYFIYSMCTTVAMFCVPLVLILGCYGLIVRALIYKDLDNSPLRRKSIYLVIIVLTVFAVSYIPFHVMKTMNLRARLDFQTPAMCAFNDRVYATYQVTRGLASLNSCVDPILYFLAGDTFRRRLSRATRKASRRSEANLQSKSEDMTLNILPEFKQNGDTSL
As to conditions: GPCR P2Y1 (purinergic receptor P2Y, G-protein coupled, 1).

Assay [5] has as its target T3, 348 GPCRs (Homo sapiens, UniProt Q16538).
T3 construct: expressed in transfected cells; host or cells: HEK293A
As to conditions: 10µM, Favipiravir 100μM.

Assay [6] addresses T4, 348 GPCRs (Homo sapiens, UniProt Q8IZF3).
T4 construct: expressed in transfected cells; host or cells: HEK293A
T4 sequence (Q8IZF3 22-695): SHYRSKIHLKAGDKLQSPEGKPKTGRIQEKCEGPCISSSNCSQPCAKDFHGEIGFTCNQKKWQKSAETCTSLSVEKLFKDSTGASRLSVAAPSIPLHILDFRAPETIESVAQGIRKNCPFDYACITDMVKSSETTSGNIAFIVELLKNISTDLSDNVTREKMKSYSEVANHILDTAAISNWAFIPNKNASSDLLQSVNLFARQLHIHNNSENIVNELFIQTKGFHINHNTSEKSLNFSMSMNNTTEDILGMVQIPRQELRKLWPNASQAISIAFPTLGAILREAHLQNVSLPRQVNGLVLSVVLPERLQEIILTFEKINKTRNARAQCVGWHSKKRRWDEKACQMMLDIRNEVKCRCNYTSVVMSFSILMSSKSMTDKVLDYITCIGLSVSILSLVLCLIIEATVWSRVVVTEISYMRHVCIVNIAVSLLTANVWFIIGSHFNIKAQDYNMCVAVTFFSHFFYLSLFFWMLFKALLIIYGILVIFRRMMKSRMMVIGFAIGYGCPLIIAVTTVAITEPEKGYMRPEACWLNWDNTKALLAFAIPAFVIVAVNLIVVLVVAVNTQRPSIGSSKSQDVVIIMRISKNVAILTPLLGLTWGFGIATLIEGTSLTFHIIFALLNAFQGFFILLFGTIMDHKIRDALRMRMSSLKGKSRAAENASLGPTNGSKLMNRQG

In assay [7] the target is T5, 348 GPCRs (Homo sapiens, UniProt Q969N4).
T5 construct: expressed in transfected cells; host or cells: HEK293A
T5 sequence (Q969N4 1-342): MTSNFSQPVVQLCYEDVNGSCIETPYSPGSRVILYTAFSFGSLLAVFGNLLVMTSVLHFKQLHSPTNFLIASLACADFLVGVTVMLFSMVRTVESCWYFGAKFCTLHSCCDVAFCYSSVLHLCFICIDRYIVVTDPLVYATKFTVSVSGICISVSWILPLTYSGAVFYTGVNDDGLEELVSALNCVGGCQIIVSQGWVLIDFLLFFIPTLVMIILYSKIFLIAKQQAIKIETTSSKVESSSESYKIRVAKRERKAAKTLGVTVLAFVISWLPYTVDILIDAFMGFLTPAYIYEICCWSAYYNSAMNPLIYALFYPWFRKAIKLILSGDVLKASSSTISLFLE
The following applies: 10µM, Favipiravir 100μM.

The target in assay [8] is T6, 348 GPCRs (Homo sapiens, UniProt Q9H1C0).
T6 construct: expressed in transfected cells; host or cells: HEK293A
T6 sequence (Q9H1C0 whole entry): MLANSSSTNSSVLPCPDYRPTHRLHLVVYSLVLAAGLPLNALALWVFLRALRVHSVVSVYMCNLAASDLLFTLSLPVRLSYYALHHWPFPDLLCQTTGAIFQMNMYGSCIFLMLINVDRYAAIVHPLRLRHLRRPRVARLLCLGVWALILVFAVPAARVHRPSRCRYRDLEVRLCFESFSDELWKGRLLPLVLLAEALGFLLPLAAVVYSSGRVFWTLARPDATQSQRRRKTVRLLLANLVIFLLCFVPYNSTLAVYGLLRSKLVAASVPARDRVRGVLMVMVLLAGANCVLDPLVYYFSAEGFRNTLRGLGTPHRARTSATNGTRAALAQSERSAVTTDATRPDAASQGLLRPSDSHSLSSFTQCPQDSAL
The following applies: 10µM, Favipiravir 100μM.

Assay [9] addresses 348 GPCRs (Homo sapiens, UniProt Q9H228). As to conditions: 10µM, Favipiravir 100μM.
The target of assay [10] is T7, 348 GPCRs (Homo sapiens, UniProt Q9NS67).
T7 construct: expressed in transfected cells; host or cells: HEK293A
T7 sequence (Q9NS67 whole entry): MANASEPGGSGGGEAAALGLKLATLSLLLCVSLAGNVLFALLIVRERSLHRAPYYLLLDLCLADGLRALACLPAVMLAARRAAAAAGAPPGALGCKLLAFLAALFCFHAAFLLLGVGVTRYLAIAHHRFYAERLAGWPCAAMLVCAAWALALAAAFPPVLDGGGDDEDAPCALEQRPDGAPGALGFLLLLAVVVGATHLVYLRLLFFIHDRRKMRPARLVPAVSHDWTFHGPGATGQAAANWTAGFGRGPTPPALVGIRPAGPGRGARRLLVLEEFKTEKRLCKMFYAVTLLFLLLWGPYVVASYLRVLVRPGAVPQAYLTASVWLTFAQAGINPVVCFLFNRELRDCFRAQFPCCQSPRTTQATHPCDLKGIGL
As to conditions: 10µM, Favipiravir 100μM.

The target of assay [11] is T8, 348 GPCRs (Homo sapiens, UniProt Q9ULV1).
T8 construct: expressed in transfected cells; host or cells: HEK293A
T8 sequence (Q9ULV1 37-537): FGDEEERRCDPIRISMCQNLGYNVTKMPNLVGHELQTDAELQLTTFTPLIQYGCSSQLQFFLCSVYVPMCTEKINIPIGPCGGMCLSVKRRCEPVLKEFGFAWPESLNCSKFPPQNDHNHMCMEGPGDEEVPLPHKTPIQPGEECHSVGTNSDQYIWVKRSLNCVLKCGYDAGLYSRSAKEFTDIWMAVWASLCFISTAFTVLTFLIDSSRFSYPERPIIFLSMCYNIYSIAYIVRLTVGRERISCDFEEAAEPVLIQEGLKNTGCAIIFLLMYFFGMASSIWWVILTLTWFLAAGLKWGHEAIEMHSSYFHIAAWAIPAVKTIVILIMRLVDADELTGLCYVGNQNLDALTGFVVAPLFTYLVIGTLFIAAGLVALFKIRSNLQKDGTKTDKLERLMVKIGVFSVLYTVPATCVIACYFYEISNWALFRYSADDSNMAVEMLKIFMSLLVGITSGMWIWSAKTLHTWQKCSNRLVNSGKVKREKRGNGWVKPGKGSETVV
The following applies: 10µM, Favipiravir 100μM.

The mark [12] stands for this setting: FFA2 (free fatty acid receptor 2), read-out: % GPCR activation compared to TPA.
The mark [13] stands for this setting: D1 (dopamine receptor D1), read-out: % GPCR activation compared to TPA.
[14] abbreviates: SSTR3 (somatostatin receptor 3), read-out: % GPCR activation compared to TPA.
Where [15] appears, read: GPR162 (G Protein-Coupled Receptor 162), read-out: % GPCR activation compared to TPA.
Setting [16] is: TAAR8 (trace amine associated receptor 8), read-out: % GPCR activation compared to TPA.
The mark [17] stands for this setting: LPAR5 (lysophosphatidic acid receptor 5), read-out: % GPCR activation compared to TPA.
[18] abbreviates: S1PR5 (sphingosine-1-phosphate receptor 5), read-out: % GPCR activation compared to TPA.
Setting [19] is: GPR27 (G Protein-Coupled Receptor 27), read-out: % GPCR activation compared to TPA.
Where [20] appears, read: FZD4 (frizzled family receptor 4), read-out: % GPCR activation compared to TPA.
Where [21] appears, read: read-out: % GPCR activation compared to TPA, FFA2 (free fatty acid receptor 2).
Where [22] appears, read: read-out: % GPCR activation compared to TPA, D1 (dopamine receptor D1).
[23] abbreviates: read-out: % GPCR activation compared to TPA, SSTR3 (somatostatin receptor 3).
The mark [24] stands for this setting: read-out: % GPCR activation compared to TPA, GPR162 (G Protein-Coupled Receptor 162).
Where [25] appears, read: read-out: % GPCR activation compared to TPA, GPCR GPR115 (G-protein-coupled receptor 115 (ADGRF4)).
Where [26] appears, read: read-out: % GPCR activation compared to TPA, TAAR8 (trace amine associated receptor 8).
[27] abbreviates: read-out: % GPCR activation compared to TPA, LPAR5 (lysophosphatidic acid receptor 5).
Where [28] appears, read: read-out: % GPCR activation compared to TPA, S1PR5 (sphingosine-1-phosphate receptor 5).
The mark [29] stands for this setting: read-out: % GPCR activation compared to TPA, GPR27 (G Protein-Coupled Receptor 27).
Setting [30] is: read-out: % GPCR activation compared to TPA, FZD4 (frizzled family receptor 4).
Where [31] appears, read: GPCR GPR115 (G-protein-coupled receptor 115 (ADGRF4)), read-out: % GPCR activation compared to TPA.

T3 sequence (Q16538 whole entry): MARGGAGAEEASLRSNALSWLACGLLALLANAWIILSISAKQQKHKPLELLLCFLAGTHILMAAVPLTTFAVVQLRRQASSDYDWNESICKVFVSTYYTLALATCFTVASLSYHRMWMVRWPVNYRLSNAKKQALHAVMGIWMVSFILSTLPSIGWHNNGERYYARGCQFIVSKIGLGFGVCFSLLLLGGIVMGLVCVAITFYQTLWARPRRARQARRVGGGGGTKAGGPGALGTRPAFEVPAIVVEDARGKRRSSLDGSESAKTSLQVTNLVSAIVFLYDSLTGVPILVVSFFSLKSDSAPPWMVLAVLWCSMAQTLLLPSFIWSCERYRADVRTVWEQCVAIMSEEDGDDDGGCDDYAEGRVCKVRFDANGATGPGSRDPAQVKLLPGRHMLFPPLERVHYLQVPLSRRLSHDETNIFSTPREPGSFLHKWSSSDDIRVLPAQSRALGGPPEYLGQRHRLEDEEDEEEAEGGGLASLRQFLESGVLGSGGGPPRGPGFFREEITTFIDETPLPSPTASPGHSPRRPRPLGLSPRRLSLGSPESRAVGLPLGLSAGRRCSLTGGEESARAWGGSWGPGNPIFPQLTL
Sequence of 348 GPCRs (Homo sapiens, UniProt Q9H228) (Q9H228 whole entry): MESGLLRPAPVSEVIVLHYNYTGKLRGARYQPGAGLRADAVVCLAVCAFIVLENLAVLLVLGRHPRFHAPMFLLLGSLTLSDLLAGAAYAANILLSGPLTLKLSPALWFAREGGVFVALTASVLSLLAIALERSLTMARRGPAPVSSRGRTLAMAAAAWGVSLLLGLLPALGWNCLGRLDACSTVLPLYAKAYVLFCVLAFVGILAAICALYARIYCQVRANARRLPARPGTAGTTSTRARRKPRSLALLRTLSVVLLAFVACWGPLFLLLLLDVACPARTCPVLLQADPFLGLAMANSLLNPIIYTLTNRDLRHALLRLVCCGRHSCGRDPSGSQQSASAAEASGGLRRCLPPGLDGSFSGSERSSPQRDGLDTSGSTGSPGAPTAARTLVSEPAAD
Sequence of 348 GPCRs (Homo sapiens, UniProt P32745) (P32745 whole entry): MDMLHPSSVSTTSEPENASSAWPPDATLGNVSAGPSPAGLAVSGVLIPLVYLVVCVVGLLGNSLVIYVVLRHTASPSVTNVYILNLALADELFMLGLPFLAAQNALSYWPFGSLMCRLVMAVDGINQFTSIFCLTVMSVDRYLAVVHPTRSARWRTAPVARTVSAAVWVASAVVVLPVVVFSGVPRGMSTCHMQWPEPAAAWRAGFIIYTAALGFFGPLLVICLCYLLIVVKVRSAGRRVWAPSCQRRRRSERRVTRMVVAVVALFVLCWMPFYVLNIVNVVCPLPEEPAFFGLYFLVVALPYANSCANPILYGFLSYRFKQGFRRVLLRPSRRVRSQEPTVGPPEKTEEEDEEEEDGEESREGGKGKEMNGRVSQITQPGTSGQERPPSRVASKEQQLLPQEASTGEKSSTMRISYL

For `NC(=O)c1nc(F)cnc1O` [favipiravir, 6-fluoro-3-hydroxy-2-pyrazinecarboxamide], the activation at 10 µM in [1] (setting [12]) is -0.501%; in [2] (setting [13]), -0.0785%; in assay [3] (setting [14]) it was 1.41%; in [5] (setting [15]), -1.13%; in assay [8] (setting [17]), -1.99%; in assay [9] (setting [18]), 1.49%. Further, the “% GPCR activation compared to TPA” value in [4] (100μM) is 0.4296%. Moreover, the activation at 100 µM is -2.79% in [6] (GPCR GPR115 (G-protein-coupled receptor 115 (ADGRF4)), 100μM, read-out: % GPCR activation compared to TPA); 0.473% in assay [7] (setting [16]); -0.296% in assay [10] (setting [19]); 0.755% in [11] (setting [20]).
`CC(C)OC(=O)[C@H](C)N[P@](=O)(OC[C@H]1O[C@@H](n2ccc(=O)[nH]c2=O)[C@](C)(F)[C@@H]1O)Oc1ccccc1` [sofosbuvir]: the activation at 10 µM in assay [1] (setting [21]) is 0.172%; in [2] (setting [22]) it was -0.068%; in [3] (setting [23]) it was -1.81%; in [5] (setting [24]), 0.48%; in assay [6] (setting [25]) it was -1.19%; in assay [8] (setting [27]) it was 1.1%. Also, in assay [9] (setting [28]), the activation at 10 µM is -0.326%. Moreover, the “% GPCR activation compared to TPA” value in assay [4] (10µM) is -4.632%. Also, the activation at 100 µM in assay [7] (setting [26]) is -2.21%; in [10] (setting [29]), 1.94%; in assay [11] (setting [30]), -0.222%.
On to `CCC(CC)COC(=O)[C@H](C)N[P@](=O)(OC[C@H]1O[C@@](C#N)(c2ccc3c(N)ncnn23)[C@H](O)[C@@H]1O)Oc1ccccc1` [remdesivir], for which the activation at 10 µM in [1] (setting [21]) was -1.72%; in assay [2] (setting [22]), 4.77%; in [3] (setting [23]), 3.89%; in assay [5] (setting [24]), 2.55%; in assay [6] (setting [25]) it was -1.78%; in assay [8] (setting [27]) it was 2.15%. Moreover, the activation at 10 µM in assay [9] (setting [28]) is -1.2%. The “% GPCR activation compared to TPA” value in assay [4] (10µM) was 11.0377%. Moreover, the activation at 100 µM in assay [7] (setting [26]) was 0.465%; in assay [10] (setting [29]) it was 0.0845%; in assay [11] (setting [30]) it was 3.99%.
With `N#C[C@@]1(c2ccc3c(N)ncnn23)O[C@H](CO)[C@@H](O)[C@H]1O` [GS441524], the activation at 10 µM in [1] (setting [12]) was -2.64%; in assay [2] (setting [13]), 0.291%; in [3] (setting [14]), 3.54%; in [5] (setting [15]) it was -0.758%; in assay [6] (setting [31]), -3.61%; in assay [8] (setting [17]), 2.96%. Moreover, the activation at 10 µM in assay [9] (setting [18]) was -0.465%. Moreover, the “% GPCR activation compared to TPA” value in assay [4] (10µM) is -0.4592%. The activation at 100 µM in assay [7] (setting [16]) was -1.62%; in assay [10] (setting [19]), 1.65%; in assay [11] (setting [20]), 4.3%.
In the case of `CC(C)C(=O)OC[C@H]1O[C@@H](n2ccc(NO)nc2=O)[C@H](O)[C@@H]1O` [molnupiravir], the activation at 10 µM was -4.09% in assay [1] (setting [12]); 1.11% in [2] (setting [13]); -1.25% in assay [3] (setting [14]); -1.64% in assay [5] (setting [15]); -1.43% in assay [6] (setting [31]); -2.73% in [8] (setting [17]). In addition, the activation at 10 µM in assay [9] (setting [18]) was -0.945%. Besides, the “% GPCR activation compared to TPA” value in [4] (10µM) is given as -11.8258%. Besides, the activation at 100 µM in [7] (setting [16]) was -0.135%; in assay [10] (setting [19]) it was -0.612%; in assay [11] (setting [20]), 1.08%.
